Results: publication PMC5267425, “Identification of small molecule modulators of HIV-1 Tat and Rev protein accumulation” (Retrovirology, 2017)

Test system: HeLa rtTA HIV∆Mls cells
Assay: Trypan blue exclusion, HeLa
Assay type: cell-based
Details: up to 10 µM
Method: Effects of compound treatment on cellular metabolism was assessed by an XTT-based in vitro toxicology assay kit (Sigma-Aldrich) or Trypan blue exclusion (Life Technologies) as proxy for degree of cytotoxicity and expressed relative to DMSO control treatment. For measurement of cell viability using XTT, culture media was removed after 24, 72, and 96 h of compound treatment, replaced with 20% XTT solution and incubated at 37 °C in a 5% CO2 humidified incubator for 2–6 h, and relative cell viability was measured in compound treated cells relative to DMSO-treated cells. Cell viability measurements in CEM-GXR cells are described above.

O=C(NC(=S)NNC(=O)c1ccccc1O)c1ccc(-c2ccccc2)cc1 [Compound 833, N-([2-(2-hydroxybenzoyl)hydrazino]carbonothioyl}-4-biphenylcarboxamide]
Trypan blue exclusion: no change
